Reference: US20120270237A9, “METHODS FOR THE IDENTIFICATION OF KINASE INTERACTING MOLECULES AND FOR THE PURIFICATION OF KINASE PROTEINS” (Cellzone AG, priority 2009, published 2012)

How the values were obtained:
ALK4 = biological target: T1, ALK4 (Homo sapiens, UniProt P36896); experiment: Kinobeads competition binding, HL60 cell lysate; conditions: 10 μM free compound
T1 construct: endogenous in cells; host or cells: HL60 cells
Procedure: (§1) To one aliquot of cell lysate 10 μM of the free compound (FIG. 3, CZC31326) was added and allowed to bind to proteins in the lysate. Then the affinity matrix with the immobilized compound (Example 1) was added to capture proteins that were not interacting with the previously added free compound. Beads were separated from the lysate and bead bound proteins were eluted in SDS sample buffer and subsequently separated by SDS-Polyacrylamide gel electrophoresis (FIG. 4). Suitable gel bands were cut out and subjected to in-gel proteolytic digestion with trypsin. The second lysate aliquot was processed identically, however no free compound was added (DMSO solvent control). Peptides originating from samples 1 and 2 were labeled with iTRAQ reagents (iTRAQ 114 and iTRAQ 117) and the combined samples were analyzed with a nano-flow liquid chromatography system coupled online to a tandem mass spectrometer (LC-MS/MS) experiment followed by iTRAQ reporter ion quantification in the MS/MS spectra (Ross et al., 2004. Mol. Cell. Proteomics 3(12):1154-1169). Further experimental protocols can be found in WO2006/134056 and a previous publication (Bantscheff et al., 2007. Nature Biotechnology 25, 1035-1044). Sepharose-beads with the immobilized compound (100 μl beads per pull-down experiment) were equilibrated in lysis buffer and incubated with a cell lysate sample containing 50 mg of protein on an end-over-end shaker (Roto Shake Genie, Scientific Industries Inc.) for 2 hours at 4° C. Beads were collected, transferred to Mobicol-columns (MoBiTech 10055) and washed with 10 ml lysis buffer containing 0.4% NP40 detergent, followed by 5 ml lysis buffer containing 0.2% detergent. To elute bound proteins, 60 μl 2×SDS sample buffer was added to the column. The column was incubated for 30 minutes at 50° C. and the eluate was transferred to a siliconized microfuge tube by centrifugation. Proteins were then alkylated with 108 mM iodoacetamid. Proteins were then separated by SDS-Polyacrylamide electrophoresis (SDS-PAGE). The peptide extracts of samples treated with 10 μM of free compound (CZC31326) and the solvent control (0.5% DMSO) were treated with different variants of the isobaric tagging reagent (iTRAQ Reagents Multiplex Kit, part number 4352135, Applied Biosystems, Foster City, Calif., USA). The iTRAQ reagents are a set of multiplexed, amine-specific, stable isotope reagents that can label peptides on amino groups in up to four different biological samples enabling simultaneous identification and quantitation of peptides. The iTRAQ reagents were used according to instructions provided by the manufacturer. The samples were resuspended in 10 μl 50 mM TEAB solution, pH 8.5 and 10 μl ethanol were added. The iTRAQ reagent was dissolved in 120 μl ethanol and 10 μl of reagent solution were added to the sample. The labeling reaction was performed at room temperature for one hour on a horizontal shaker and stopped by adding 5 μl of 100 mM TEAB and 100 mM glycine in water. The two labeled sampled were then combined, dried in a vacuum centrifuge and resuspended in 10 μl of 0.1% formic acid in water. Relative protein quantitation was performed using peak areas of iTRAQ reporter ion signals essentially as described in an earlier publication (Bantscheff et al., 2007. Nature Biotechnology 25, 1035-1044).

CDK10 = biological target: T2, CDK10 (Homo sapiens, UniProt Q15131); experiment: Kinobeads competition binding, HL60 cell lysate; conditions: 10 μM free compound
T2 construct: endogenous in cells; host or cells: HL60 cells
Procedure: as §1

CLK1 = biological target: T3, CLK1 (Homo sapiens, UniProt P49759); experiment: Kinobeads competition binding, HL60 cell lysate; conditions: 10 μM free compound
T3 construct: endogenous in cells; host or cells: HL60 cells
Procedure: as §1

CRK7 = biological target: T4, CRK7 (Homo sapiens, UniProt Q9NYV4); experiment: Kinobeads competition binding, HL60 cell lysate; conditions: 10 μM free compound
T4 construct: endogenous in cells; host or cells: HL60 (DSMZ ACC3)
Procedure: as §1

CSK = biological target: T5, CSK (Homo sapiens, UniProt P41240); experiment: Kinobeads competition binding, HL60 cell lysate; conditions: 10 μM free compound
T5 construct: endogenous in cells; host or cells: HL60 (DSMZ ACC3)
Procedure: as §1

LCK = biological target: T6, LCK (Homo sapiens, UniProt P06239); experiment: Kinobeads competition binding, HL60 cell lysate; conditions: 10 μM free compound
T6 construct: Identified kinases with CZC31326 from HL60 lysate; endogenous in cells; host or cells: HL60
Procedure: as §1

MAP2K5 = biological target: T7, MAP2K5 (Homo sapiens, UniProt Q13163); experiment: Kinobeads competition binding, HL60 cell lysate; conditions: 10 μM free compound
T7 sequence (Q13163 1-448): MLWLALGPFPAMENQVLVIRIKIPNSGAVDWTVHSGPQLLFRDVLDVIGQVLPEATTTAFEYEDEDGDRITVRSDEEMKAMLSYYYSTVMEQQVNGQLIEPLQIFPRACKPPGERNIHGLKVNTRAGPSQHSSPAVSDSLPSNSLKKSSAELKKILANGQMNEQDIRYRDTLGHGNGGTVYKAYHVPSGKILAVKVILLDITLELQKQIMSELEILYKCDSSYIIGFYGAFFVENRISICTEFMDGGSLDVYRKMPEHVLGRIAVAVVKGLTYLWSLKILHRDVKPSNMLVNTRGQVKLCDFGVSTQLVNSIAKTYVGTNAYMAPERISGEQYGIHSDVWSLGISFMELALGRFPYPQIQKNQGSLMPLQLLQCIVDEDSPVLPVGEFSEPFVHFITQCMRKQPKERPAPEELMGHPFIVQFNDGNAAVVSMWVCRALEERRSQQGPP
Procedure: as §1

RET = biological target: T8, RET (Homo sapiens, UniProt P07949); experiment: Kinobeads competition binding, HL60 cell lysate; conditions: 10 μM free compound
T8 construct: endogenous in cells; host or cells: HL60 cells
Procedure: as §1

CaMKK2 = CaMKK2 (Homo sapiens, UniProt Q96RR4); experiment: Kinobeads competition binding, L-363 cell lysate; set-up: capturing and identification of kinases from L-363 cell lysate; endogenous in cells; host or cells: L-363 cells (DSMZ ACC49), pre-treated with MG132; conditions: 10 μM free compound, L-363 lysate
Procedure: To one aliquot of cell lysate 10 μM of the free compound (FIG. 3, CZC31326) was added and allowed to bind to proteins in the lysate. Then the affinity matrix with the immobilized compound was added to capture proteins that were not interacting with the previously added free compound. Beads were separated from the lysate and bead bound proteins were eluted in SDS sample buffer and subsequently separated by SDS-Polyacrylamide gel electrophoresis (FIG. 8). Suitable gel bands were cut out and subjected to in-gel proteolytic digestion with trypsin. The second lysate aliquot was processed identically, however no free compound was added (DMSO solvent control). Peptides originating from samples 1 and 2 were labeled with iTRAQ reagents (iTRAQ 114 and iTRAQ 117) and the combined samples were analyzed with a nano-flow liquid chromatography system coupled online to a tandem mass spectrometer (LC-MS/MS) experiment followed by iTRAQ reporter ion quantification in the MS/MS spectra as described in Example 2.
For this experiment the human plasma cell leukaemia line L-363 was used (German Collection of Microorganisms and Cell Cultures, DSMZ number ACC49, Braunschweig, Germany). Cells were treated for three hours with 20 μM of the proteasome inhibitor MG132 (Z-Leu-Leu-Leu-al, Sigma C2211) prior to cell harvesting.

T4 sequence (Q9NYV4 whole entry): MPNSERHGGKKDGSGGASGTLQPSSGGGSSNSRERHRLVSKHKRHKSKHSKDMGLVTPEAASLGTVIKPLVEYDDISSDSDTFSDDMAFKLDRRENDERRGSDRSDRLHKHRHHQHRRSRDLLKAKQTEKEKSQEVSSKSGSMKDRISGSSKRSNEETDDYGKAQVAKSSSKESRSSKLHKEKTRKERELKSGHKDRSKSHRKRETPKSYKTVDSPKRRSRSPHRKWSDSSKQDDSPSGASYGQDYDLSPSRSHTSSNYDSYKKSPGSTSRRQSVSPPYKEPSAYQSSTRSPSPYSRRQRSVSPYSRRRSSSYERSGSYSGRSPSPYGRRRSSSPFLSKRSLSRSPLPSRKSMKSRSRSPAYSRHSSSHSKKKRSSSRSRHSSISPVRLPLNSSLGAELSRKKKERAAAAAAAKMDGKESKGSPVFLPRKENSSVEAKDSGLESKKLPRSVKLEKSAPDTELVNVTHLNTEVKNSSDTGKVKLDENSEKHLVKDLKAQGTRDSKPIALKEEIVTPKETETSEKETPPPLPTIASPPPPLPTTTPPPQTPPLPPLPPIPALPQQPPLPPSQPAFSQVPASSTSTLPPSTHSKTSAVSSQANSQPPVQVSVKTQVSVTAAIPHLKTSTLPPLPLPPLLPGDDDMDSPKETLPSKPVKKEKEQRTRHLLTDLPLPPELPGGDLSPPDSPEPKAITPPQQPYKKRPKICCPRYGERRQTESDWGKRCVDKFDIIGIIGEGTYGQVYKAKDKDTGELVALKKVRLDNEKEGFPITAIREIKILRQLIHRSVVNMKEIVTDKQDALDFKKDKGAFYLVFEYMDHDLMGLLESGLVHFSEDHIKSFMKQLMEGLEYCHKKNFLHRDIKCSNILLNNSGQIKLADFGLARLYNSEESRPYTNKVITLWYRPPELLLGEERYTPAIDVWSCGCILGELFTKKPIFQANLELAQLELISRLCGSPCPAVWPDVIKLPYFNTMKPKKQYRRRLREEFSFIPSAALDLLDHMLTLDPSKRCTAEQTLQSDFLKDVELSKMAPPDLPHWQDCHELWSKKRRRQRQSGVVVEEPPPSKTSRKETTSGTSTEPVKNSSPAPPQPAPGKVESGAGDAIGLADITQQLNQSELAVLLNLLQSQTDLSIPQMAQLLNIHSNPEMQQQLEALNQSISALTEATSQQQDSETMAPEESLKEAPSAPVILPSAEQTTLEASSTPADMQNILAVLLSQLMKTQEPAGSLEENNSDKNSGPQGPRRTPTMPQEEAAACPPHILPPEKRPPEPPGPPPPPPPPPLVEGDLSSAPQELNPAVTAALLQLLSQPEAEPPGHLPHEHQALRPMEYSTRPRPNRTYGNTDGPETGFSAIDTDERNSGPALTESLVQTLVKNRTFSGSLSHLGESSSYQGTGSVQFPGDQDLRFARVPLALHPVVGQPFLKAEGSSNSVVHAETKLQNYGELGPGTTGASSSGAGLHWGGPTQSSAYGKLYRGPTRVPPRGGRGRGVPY
T4 sequence (O75909 whole entry partner): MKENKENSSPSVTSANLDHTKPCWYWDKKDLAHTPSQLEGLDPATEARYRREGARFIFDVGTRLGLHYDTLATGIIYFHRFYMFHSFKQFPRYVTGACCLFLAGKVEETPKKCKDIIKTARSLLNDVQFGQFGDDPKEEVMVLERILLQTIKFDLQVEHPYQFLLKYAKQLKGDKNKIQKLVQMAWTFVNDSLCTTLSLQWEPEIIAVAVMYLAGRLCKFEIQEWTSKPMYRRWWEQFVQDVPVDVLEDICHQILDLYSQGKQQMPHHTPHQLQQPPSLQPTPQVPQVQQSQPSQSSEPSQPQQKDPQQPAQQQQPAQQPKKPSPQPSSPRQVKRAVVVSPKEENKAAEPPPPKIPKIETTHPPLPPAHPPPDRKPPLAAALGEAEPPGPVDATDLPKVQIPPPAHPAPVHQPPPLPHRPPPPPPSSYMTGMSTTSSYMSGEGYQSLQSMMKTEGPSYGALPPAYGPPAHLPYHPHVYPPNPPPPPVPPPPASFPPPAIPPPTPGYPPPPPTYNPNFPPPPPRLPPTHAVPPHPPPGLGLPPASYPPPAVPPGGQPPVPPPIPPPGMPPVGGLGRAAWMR
T3 sequence (P49759 whole entry): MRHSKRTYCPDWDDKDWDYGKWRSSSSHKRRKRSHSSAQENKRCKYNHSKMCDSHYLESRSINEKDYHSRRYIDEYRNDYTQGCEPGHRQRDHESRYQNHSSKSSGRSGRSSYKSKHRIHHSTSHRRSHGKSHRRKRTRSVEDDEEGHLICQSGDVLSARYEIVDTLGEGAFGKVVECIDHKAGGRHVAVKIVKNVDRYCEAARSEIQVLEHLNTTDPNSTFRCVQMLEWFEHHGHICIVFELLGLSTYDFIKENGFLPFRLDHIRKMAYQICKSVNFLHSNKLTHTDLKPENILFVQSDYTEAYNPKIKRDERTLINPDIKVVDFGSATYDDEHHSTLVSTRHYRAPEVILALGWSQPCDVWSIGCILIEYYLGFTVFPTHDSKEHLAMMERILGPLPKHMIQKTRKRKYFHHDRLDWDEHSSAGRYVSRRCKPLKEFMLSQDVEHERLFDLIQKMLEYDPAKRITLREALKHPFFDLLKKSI
CaMKK2, sequence (Q96RR4 whole entry): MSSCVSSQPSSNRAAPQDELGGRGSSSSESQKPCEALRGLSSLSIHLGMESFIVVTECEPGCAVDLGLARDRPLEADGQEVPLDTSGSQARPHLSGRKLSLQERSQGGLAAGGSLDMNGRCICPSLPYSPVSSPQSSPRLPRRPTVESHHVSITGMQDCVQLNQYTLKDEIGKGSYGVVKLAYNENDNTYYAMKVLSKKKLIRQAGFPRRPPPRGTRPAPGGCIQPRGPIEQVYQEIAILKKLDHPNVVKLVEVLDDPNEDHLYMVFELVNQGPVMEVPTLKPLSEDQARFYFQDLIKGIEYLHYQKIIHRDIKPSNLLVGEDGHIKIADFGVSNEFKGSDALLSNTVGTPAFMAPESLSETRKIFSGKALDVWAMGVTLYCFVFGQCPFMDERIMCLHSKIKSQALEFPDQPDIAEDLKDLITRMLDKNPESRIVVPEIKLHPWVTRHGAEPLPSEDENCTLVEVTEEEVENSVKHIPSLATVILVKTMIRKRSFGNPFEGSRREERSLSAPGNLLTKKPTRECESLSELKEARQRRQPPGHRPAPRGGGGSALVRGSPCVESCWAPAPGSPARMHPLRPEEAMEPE
T2 sequence (Q15131 whole entry): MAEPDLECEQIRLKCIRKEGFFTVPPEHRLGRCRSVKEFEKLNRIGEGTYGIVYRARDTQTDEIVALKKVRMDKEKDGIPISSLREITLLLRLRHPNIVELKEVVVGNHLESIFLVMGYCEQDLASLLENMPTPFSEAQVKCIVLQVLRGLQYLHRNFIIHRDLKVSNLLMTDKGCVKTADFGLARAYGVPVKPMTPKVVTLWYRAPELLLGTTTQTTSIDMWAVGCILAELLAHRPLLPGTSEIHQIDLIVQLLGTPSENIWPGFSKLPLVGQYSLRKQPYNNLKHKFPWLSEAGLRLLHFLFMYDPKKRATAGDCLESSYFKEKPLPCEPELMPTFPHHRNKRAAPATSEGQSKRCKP
T8 sequence (P07949 29-1114): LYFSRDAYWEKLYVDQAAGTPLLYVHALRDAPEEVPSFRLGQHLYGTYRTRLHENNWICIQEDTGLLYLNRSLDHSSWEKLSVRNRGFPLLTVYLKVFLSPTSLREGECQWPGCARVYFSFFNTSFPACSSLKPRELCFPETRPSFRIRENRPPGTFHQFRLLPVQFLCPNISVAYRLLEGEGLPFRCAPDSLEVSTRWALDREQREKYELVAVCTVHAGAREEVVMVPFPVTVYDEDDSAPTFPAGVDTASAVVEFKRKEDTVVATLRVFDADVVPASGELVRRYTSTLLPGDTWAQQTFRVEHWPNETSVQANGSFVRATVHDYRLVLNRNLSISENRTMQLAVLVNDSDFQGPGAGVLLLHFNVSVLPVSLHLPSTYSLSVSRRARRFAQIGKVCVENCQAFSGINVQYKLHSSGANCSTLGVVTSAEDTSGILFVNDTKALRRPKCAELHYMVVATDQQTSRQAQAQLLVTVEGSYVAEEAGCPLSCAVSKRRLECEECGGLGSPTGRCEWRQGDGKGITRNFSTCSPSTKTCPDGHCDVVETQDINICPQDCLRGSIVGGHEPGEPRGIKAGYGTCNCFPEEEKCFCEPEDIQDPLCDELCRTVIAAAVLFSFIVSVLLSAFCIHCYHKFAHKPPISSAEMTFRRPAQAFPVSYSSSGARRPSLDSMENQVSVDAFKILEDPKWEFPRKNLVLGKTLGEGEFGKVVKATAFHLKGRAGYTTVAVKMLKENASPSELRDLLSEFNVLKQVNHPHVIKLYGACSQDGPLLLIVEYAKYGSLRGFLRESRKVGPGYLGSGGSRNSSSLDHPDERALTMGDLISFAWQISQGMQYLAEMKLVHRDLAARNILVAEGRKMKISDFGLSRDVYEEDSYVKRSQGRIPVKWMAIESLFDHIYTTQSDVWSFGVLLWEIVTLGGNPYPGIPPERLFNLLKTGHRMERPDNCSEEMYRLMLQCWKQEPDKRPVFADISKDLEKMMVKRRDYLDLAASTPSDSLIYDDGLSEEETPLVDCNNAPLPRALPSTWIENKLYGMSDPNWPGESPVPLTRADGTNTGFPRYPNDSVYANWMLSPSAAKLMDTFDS
T1 sequence (P36896 24-505): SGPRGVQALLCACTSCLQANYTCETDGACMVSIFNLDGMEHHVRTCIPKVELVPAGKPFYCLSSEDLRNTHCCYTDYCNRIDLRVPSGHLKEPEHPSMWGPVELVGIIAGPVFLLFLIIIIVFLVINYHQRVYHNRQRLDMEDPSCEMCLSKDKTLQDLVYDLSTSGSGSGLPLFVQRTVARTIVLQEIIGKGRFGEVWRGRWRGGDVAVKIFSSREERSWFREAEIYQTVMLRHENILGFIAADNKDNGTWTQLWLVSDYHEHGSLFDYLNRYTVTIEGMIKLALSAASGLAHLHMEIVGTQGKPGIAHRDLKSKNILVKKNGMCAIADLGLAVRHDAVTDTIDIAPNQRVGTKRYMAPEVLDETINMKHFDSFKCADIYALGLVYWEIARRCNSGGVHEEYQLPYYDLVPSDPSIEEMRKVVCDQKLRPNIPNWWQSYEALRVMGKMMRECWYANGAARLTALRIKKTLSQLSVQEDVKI

- inhibition at 10 µM (ALK4): 94.5%
- inhibition at 10 µM (CDK10): 96.7%
- inhibition at 10 µM (CLK1): 97.4%
- Competition % (CRK7): 92.1%
- Competition % (CSK): 80.3%
- inhibition at 10 µM (LCK): 86.8%
- inhibition at 10 µM (MAP2K5): 93.1%
- inhibition at 10 µM (RET): 97.1%
- inhibition at 10 µM (CaMKK2): 97%
SMILES: CS(=O)(=O)Nc1ccccc1Nc1nc(Nc2cccc(OCCN)c2)ncc1Cl [CZC31326, N-(2-(2-(3-(2-aminoethoxy)phenylamino)-5-chloropyrimidin-4-ylamino)phenyl)methanesulfonamide]
